These are literature values, as cited in patent publication US7618664B2 (Cooperatieve Verkoop-en Productievereniging Van …, priority 2001, dated 2009).

The conditions of this series: human body.

Regarding calcium gluconate, the toxicity entry is on record as “essentially not show any toxicity”.
